We go through twelve compounds from ChEMBL document CHEMBL1131823, “Triterpene and diterpene inhibitors of pyruvate dehydrogenase kinase (PDK)” (Bioorg Med Chem Lett, 1999).

Molecules are shown by their SMILES.

The target in experiment [1] is Pyruvate dehydrogenase kinase (Homo sapiens, UniProt Q15119+Q15120+Q16654+Q15118). In words: In vitro inhibitory activity against pyruvate dehydrogenase kinase was determined. The format is protein assay.
Experiment [2] has as its system Mus musculus. Put plainly: In vivo activity in a diabetic mouse at a dose of 100 umol/kg/day on day 3 after 6 hr. It is filed as functional.
Experiment [3] has as its system Mus musculus. In words: In vivo activity in a diabetic mouse at a dose of 100 umol/kg/day on day1 after 6 hr. It is filed as functional.
The test system of experiment [4] is Mus musculus. In words: In vivo activity in a diabetic mouse at a dose of 100 umol/kg/day on day 3 after 2 hr. The format is functional.
Experiment [5] is filed under the species Homo sapiens. Put plainly: In vitro effective concentration in normal human dermal fibroblasts; Inactive. The format is functional.
Experiment [6] deals with Mus musculus. In words: In vivo activity in a diabetic mouse at a dose of 100 umol/kg/day on day1 after 4 hr. The format is functional.
Experiment [7] has as its system Mus musculus. Put plainly: In vivo activity in a diabetic mouse at a dose of 100 umol/kg/day on day1 after 2 hr. The format is functional.
For experiment [8], the system named is Mus musculus. In words: In vivo activity in a diabetic mouse at a dose of 100 umol/kg/day on day 3 after 4 hr. The format is functional.
Experiment [9] deals with Rattus norvegicus. In words: Effect on blood lactate level after 0 hour of oral administration of compound at a dose of 300 umol/kg. The format is functional.
Experiment [10] deals with Mus musculus. In words: In vivo activity in a diabetic mouse at a dose of 30 umol/kg/day on day1 after 4 hr. It is filed as functional.
The test system of experiment [11] is Rattus norvegicus. Put plainly: Effect on blood glucose level after 2 hours of oral administration of compound at a dose of 300 umol/kg. The format is functional.
The test system of experiment [12] is Rattus norvegicus. Put plainly: Effect on blood lactate level after 4 hours of oral administration of compound at a dose of 300 umol/kg. The format is functional.
The subject of experiment [13] is Mus musculus. Put plainly: In vivo activity in a diabetic mouse at a dose of 300 umol/kg/day on day 3 after 4 hr. The format is functional.
Experiment [14] relates to Mus musculus. In words: In vivo activity in a diabetic mouse at a dose of 30 umol/kg/day on day1 after 6 hr. The format is functional.
In experiment [15] the test system is Mus musculus. Put plainly: In vivo activity in a diabetic mouse at a dose of 30 umol/kg/day on day 3 after 6 hr. The format is functional.
The subject of experiment [16] is Mus musculus. In words: In vivo activity in a diabetic mouse at a dose of 30 umol/kg/day on day1 after 2 hr. The format is functional.
Experiment [17] concerns Mus musculus. In words: In vivo activity in a diabetic mouse at a dose of 30 umol/kg/day on day 3 after 2 hr. It is filed as functional.
In experiment [18] the test system is Mus musculus. Put plainly: In vivo activity in a diabetic mouse at a dose of 300 umol/kg/day on day1 after 6 hr. It is filed as functional.
Experiment [19] deals with Mus musculus. In words: In vivo activity in a diabetic mouse at a dose of 300 umol/kg/day on day 3 after 6 hr. The format is functional.
The subject of experiment [20] is Mus musculus. In words: In vivo activity in a diabetic mouse at a dose of 300 umol/kg/day on day 3 after 2 hr. The format is functional.
For experiment [21], the system named is Rattus norvegicus. In words: Effect on blood glucose level after 0 hour of oral administration of compound at a dose of 300 umol/kg. It is filed as functional.
Experiment [22] is described as follows: In vitro effective concentration in normal human dermal fibroblasts. The format is functional.
For experiment [23], the system named is Rattus norvegicus. Put plainly: Effect on blood glucose level after 4 hours of oral administration of compound at a dose of 300 umol/kg. The format is functional.
The subject of experiment [24] is Mus musculus. Put plainly: In vivo activity in a diabetic mouse at a dose of 300 umol/kg/day on day1 after 2 hr. It is filed as functional.
Experiment [25] concerns Mus musculus. Put plainly: In vivo activity in a diabetic mouse at a dose of 30 umol/kg/day on day 3 after 4 hr. The format is functional.
Experiment [26] deals with Rattus norvegicus. In words: Effect on blood lactate level after 2 hours of oral administration of compound at a dose of 300 umol/kg. It is filed as functional.
In experiment [27] the test system is Mus musculus. Put plainly: In vivo activity in a diabetic mouse at a dose of 300 umol/kg/day on day1 after 4 hr. The format is functional.
The subject of experiment [28] is Mus musculus. In words: In vivo activity in a diabetic mouse at a dose of 200 umol/kg/day on day1 after 4 hr. It is filed as functional.
The subject of experiment [29] is Mus musculus. Put plainly: In vivo activity in a diabetic mouse at a dose of 200 umol/kg/day on day1 after 6 hr. It is filed as functional.
Experiment [30] concerns Mus musculus. Put plainly: In vivo activity in a diabetic mouse at a dose of 200 umol/kg/day on day1 after 2 hr. The format is functional.
Experiment [31] relates to Mus musculus. Put plainly: In vivo activity in a diabetic mouse at a dose of 200 umol/kg/day on day 3 after 4 hr. It is filed as functional.
For experiment [32], the system named is Mus musculus. In words: In vivo activity in a diabetic mouse at a dose of 200 umol/kg/day on day 3 after 2 hr. The format is functional.
For experiment [33], the system named is Mus musculus. In words: In vivo activity in a diabetic mouse at a dose of 200 umol/kg/day on day 3 after 6 hr. The format is functional.
The subject of experiment [34] is Mus musculus. In words: In vivo activity in a diabetic mouse at a dose of 1000 umol/kg/day on day 3 after 4 hr. The format is functional.
For experiment [35], the system named is Mus musculus. In words: In vivo activity in a diabetic mouse at a dose of 1000 umol/kg/day on day 3 after 6 hr. It is filed as functional.
Experiment [36] relates to Mus musculus. Put plainly: In vivo activity in a diabetic mouse at a dose of 1000 umol/kg/day on day1 after 6 hr. It is filed as functional.
For experiment [37], the system named is Mus musculus. In words: In vivo activity in a diabetic mouse at a dose of 1000 umol/kg/day on day1 after 4 hr. The format is functional.
The subject of experiment [38] is Mus musculus. In words: In vivo activity in a diabetic mouse at a dose of 1000 umol/kg/day on day 3 after 2 hr. It is filed as functional.
For experiment [39], the system named is Mus musculus. Put plainly: In vivo activity in a diabetic mouse at a dose of 1000 umol/kg/day on day1 after 2 hours. It is filed as functional.

As for `C[C@]12CC[C@H]3[C@@H](CCC4=C/C(=N/O)CC[C@@H]43)[C@@H]1CC[C@@H]2O`, in experiment [1], the IC50 was found to be 5.4 µM. This counts as single-digit micromolar.

For `C[C@]12CC/C(=N\O)C[C@@H]1CC[C@@H]1[C@@H]2CC[C@]2(C)[C@@H](O)CC[C@@H]12`, the IC50 in experiment [1] was 51 µM. Compared with the last compound, the IC50 is about 9.4-fold higher.

With `CC(C)C1=CC2=CC[C@H]3[C@](C)(CO)CCC[C@]3(C)[C@H]2CC1`, the Efficacy in [2] is 24%; in [3] it was 19%; in experiment [4], 7%; in [6], -8%; in experiment [7], 7%; in experiment [8] it was 10%. Further, in [5], the EC50 result is “Not Active”. Further, in [1], the IC50 is given as ~ 10 uM.

Regarding `C[C@]12CC[C@H]3[C@@H](CCC4=C/C(=N/CC(=O)O)CC[C@@H]43)[C@@H]1CC[C@@H]2O`, in experiment [1], the IC50 amounted to 56 µM.

`C#C[C@]1(O)CC[C@H]2[C@@H]3CCC4=C/C(=N/O)CC[C@@H]4[C@H]3CC[C@@]21C` displayed an IC50 in [1] of 5.8 µM.

As for `C=C=C[C@]1(O)CC[C@H]2[C@@H]3CCC4=C/C(=N/O)CC[C@@H]4[C@H]3CC[C@@]21C`, the Efficacy was 47% in [2]; -3% in experiment [10]; 83% in [13]; 2% in experiment [14]; 26% in [3]; -6% in experiment [15]. Also, the Efficacy in [4] is 73%; in experiment [6] it was 4%; in [16], -6%; in experiment [7] it was 3%; in experiment [17] it was 38%; in [8], 70%. Besides, the Efficacy was 51% in experiment [18]; 75% in experiment [19]; 92% in [20]; -2% in experiment [24]; 43% in [25]; 19% in experiment [27]. Also, the figures for the Blood lactate in [9], in experiment [12] and in [26] were 1.01 mM, 0.79 mM and 0.8 mM, respectively. The Blood glucose in experiment [11] turned out to be 49.1 mg/dL; in [21] it was 49.5 mg/dL; in [23], 49.3 mg/dL. Also, the EC50 result in [5] is “Not Active”; in experiment [22] it was 1.7 µM. In experiment [1], this compound had a concentration for half-maximal inhibition (IC50) of 0.84 µM.

As to `CC(C)c1ccc2c(c1)CC[C@H]1[C@](C)(CN)CCC[C@]21C`, the Efficacy is 47% in experiment [2]; -1% in [10]; 86% in [13]; 11% in experiment [14]; 22% in experiment [3]; 19% in experiment [15]. Also, the Efficacy in experiment [4] is listed as 26%; in experiment [6] it was 28%; in [16], 18%; in experiment [7] it was 30%; in experiment [17], -4%; in experiment [8], 36%. Also, the Efficacy in experiment [18] was 65%; in experiment [19], 90%; in experiment [20], 85%; in experiment [24] it was 68%; in [25], 2%; in experiment [27], 69%. In addition, the EC50 result in experiment [5] is recorded as “Not Active”. In experiment [1], this compound displayed an IC50 of 9.5 µM.

Consider `CC(C)C1=CC2=CC[C@@H]3[C@](C)(CCC[C@@]3(C)C(N)=O)[C@H]2CC1`, for which the Efficacy was -2% in experiment [28]; 16% in [29]; 4% in experiment [30]; 9% in experiment [31]; 13% in [32]; 16% in experiment [33]. Moreover, the EC50 result in experiment [5] is given as “Not Active”. Also, the IC50 in experiment [1] is 6.7 µM.

On to `C[C@]12CC/C(=N\O)C[C@H]1CC[C@@H]1[C@@H]2CC[C@]2(C)[C@@H](O)CC[C@@H]12`, for which the IC50 in experiment [1] came to 36 µM. That is a double-digit micromolar value.

Regarding `CC(C)C1=CC2=CC[C@@H]3[C@](C)(CCC[C@@]3(C)C(=O)O)[C@H]2CC1` [ABIETIC ACID], the Efficacy was 25% in [28]; 42% in experiment [29]; 45% in experiment [30]; 22% in experiment [31]; 24% in experiment [32]; 29% in [33]. Further, the EC50 result in experiment [5] is recorded as “Not Active”. Moreover, the IC50 in experiment [1] was 20 µM.

On to `O=C(O)C(Cl)Cl` [DICHLOROACETIC ACID], for which the Efficacy is given as 50% in experiment [34]; 56% in [35]; 29% in experiment [36]; 39% in [37]; 52% in experiment [38]; 59% in experiment [39]. Moreover, the EC50 in [22] worked out at 100 µM.

Compound `C[C@]12CC[C@H]3[C@@H](CCC4=CC(=O)CC[C@@H]43)[C@@H]1CC[C@@H]2O` [NANDROLONE] registered an IC50 in [1] of 120 µM.

For orientation: IC50 means the concentration that inhibits the measured activity by half. The low end stands for greater potency in that assay, the high end for weaker potency in that assay. As usually defined, the EC50 is the concentration needed to bring the measured effect to its halfway point. High values mean a need for much substance, low ones an effect from little substance.
